Results taken from patent US20180133186A1, “PREVENTATIVE TREATMENT OF ALZHEIMER'S DISEASE” (priority 2016, published 2018).
Where two headings read alike, the source gives them in different places.

Assays:
melanoma [1] = details: 6 g/m^2/d oral escalated to 12 g/m^2/d, n = 24; cited from earlier work
[2] = test system: Trypanosoma brucei gambiense; details: cited from earlier work; for effective dosage for successful treatment of trypanosomiasis: humans
CVN-AD mice [3] = type: in vivo
Experimental: (§1) This example was carried out as schematically illustrated in FIG. 1. […] Brains from each mouse were harvested at the end the third day of the rotorod procedure. Brain tissue lysates from each mouse in the experiment were used to determine the levels of Abeta 40 and Abeta 42 peptides and brain metabolites.

ornithine decarboxylase = biological target: T1, ornithine decarboxylase (Mus musculus, UniProt P00860); test: Whole brain lysate metabolite levels related to ornithine decarboxylase activity; type: in vivo
T1 construct: from tissue; host or cells: brain of CVN-AD mice (in vivo dosing; whole brain lysates analysed for metabolites)
T1 sequence (P00860 1-461): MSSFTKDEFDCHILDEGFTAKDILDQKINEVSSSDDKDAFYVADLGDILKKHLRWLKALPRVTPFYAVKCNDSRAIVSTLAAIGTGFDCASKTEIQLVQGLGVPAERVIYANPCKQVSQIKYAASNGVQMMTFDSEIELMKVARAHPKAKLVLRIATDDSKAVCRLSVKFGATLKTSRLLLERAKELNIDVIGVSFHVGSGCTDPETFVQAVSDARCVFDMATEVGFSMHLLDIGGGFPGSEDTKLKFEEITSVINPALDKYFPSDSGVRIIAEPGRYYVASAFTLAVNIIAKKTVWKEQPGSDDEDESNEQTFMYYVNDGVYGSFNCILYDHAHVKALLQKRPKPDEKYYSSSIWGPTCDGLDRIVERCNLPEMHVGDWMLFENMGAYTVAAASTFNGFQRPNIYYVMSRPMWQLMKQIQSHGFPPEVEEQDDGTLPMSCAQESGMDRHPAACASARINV
Experimental: as §1
Humans with Alzheimer's disease show elevation of these metabolites (Inoue K).

Metastatic liver = details: cited from earlier work
Abeta peptides = test: Abeta 40 and Abeta 42 peptides in whole brain lysates of CVN-AD mice; type: in vivo, mouse; details: DFMO 0.3 or 30 mg/kg vs water, n=12
Source text: The average levels of soluble Abeta 42 peptide and soluble Abeta40 peptide (plus and minus the standard error of the mean) measured in whole brain lysates are shown in FIG. 3B. […] The number of mice for each group was 12.

melanoma [4] = details: cited from earlier work
humans [5] = details: cited from earlier work
humans [6] = test: Predicted dosage for Alzheimer's Clinical Trial; type: in vivo, human; details: 6 mos-4 yrs
Normal volunteers = details: cited from earlier work
CVN-AD mice [7] = test: 2-day radial arm water maze in CVN-AD mice; type: in vivo, mouse; details: n=12
Source text: Alzheimer's disease (CVN-AD) mice are modified non-human warm-blooded vertebrate animals in which a biologically active human APP polypeptide is expressed, and in which function of its inducible Nitric Oxide Synthase (iNOS) protein is reduced as compared to a non-modified animal. CVN-AD mice are described in U.S. Patent Publication No. 20090081128, the contents of which are incorporated by reference in their entirety. […] (2) Aβ deposition around blood vessels resembling pathology observed in humans with cerebral amyloid angiopathy ([…].); (3) hyperphosphorylated and aggregated mouse tau; neuronal loss; worsening behavioral deficits with time (Colton, C.); and (4) significant hippocampal and fornix volume loss (Badea, A.). […] This age in the CVN-AD mouse model is considered as representative of early Alzheimer's disease in humans (Colton, C.). The number of mice in each group is 12.

CVN-AD mice [8] = test system: CVN-AD mice
[9] = 14. g/m^2/d (400 mg/kg/day) IV, n = 1055
[10] = 14.8 g/m^2/d (400 mg/kg/day) ORAL, n = 25
[11] = 30 mg/kg, average +/- sem, n = 11-12 mice
[12] = oral delivery [Lipton A] [Pasic T R]
[13] = 2 g/m^2/d oral, n = 16, 75 days

NCCC[C@](N)(C(=O)O)C(F)F [DFMO, alpha-difluoromethylornithine]
Other toxicity detected (low grade) (melanoma [1]): 67% (low grade)
Ototoxicity, % of treated subjects (melanoma [1]): Ototoxicity in 50% of
Ototoxicity, subjects affected (melanoma [1]): (12/24)
Efficacy: clearance of trypanosomes [2, 9]: Prolonged clearance
Efficacy: confirmed cured [2, 9]: 44% confirmed
Efficacy: probable cure [2, 9]: cured, 45%
Efficacy: clearance of brain trypanosomes [2, 10]: Partial clearance of
Efficacy: death [2, 10]: weakness). No
Efficacy: signs/symptoms of trypanosomiasis [2, 10]: Reduced
effective dosage for successful treatment of trypanosomiasis ([2]; intravenous (IV)): 14800 mg/m2/d
effective dosage for successful treatment of trypanosomiasis ([2]; orally): 14800 mg/m2/d
Dose limiting events (CVN-AD mice [3]; 0.3 mg/kg, 14 wks): none
On target in brain (CVN-AD mice [3]; 0.3 mg/kg, 14 wks): yes
Dose limiting events (CVN-AD mice [3]; 10 mg/kg, 14 wks): none
On target in brain (CVN-AD mice [3]; 10 mg/kg, 14 wks (data not shown)): yes (data not
Dose limiting events (CVN-AD mice [3]; 30 mg/kg, 14 wks): none
On target in brain (CVN-AD mice [3]; 30 mg/kg, 14 wks): yes
adverse events in DFMO treated CVN-AD mice (CVN-AD mice [3]; dose range 0.9 to 90 mg/m2/d): No observable adverse events
Observed difference, putrescine (p; significantly decreased with DFMO-treatment) (ornithine decarboxylase; 30 mg/kg vs water only): p < 0.05
Observed difference, spermidine (p; significantly decreased with DFMO-treatment) (ornithine decarboxylase; 30 mg/kg vs water only): p < 0.01
putrescine, CVN-AD brain lysate levels DFMO-treated (ornithine decarboxylase; [11]): 0.49 ± 0.02 µM/g
spermidine, CVN-AD brain lysate levels DFMO-treated (ornithine decarboxylase; [11]): 12.2 ± 0.63 µM/g
brain levels of putrescine compared to untreated CVN-AD mice (ornithine decarboxylase; DFMO treatment): significantly lower
brain levels of spermidine compared to untreated CVN-AD mice (ornithine decarboxylase; DFMO treatment): significantly lower
brain levels of spermine compared to untreated CVN-AD mice (ornithine decarboxylase; DFMO treatment): significantly lower
Other toxicity detected, subjects affected (Metastatic liver; 0.5 and 1 g/m^2/d IV): 0/3) at 0.5 and 1 g/m^2/d
Ototoxicity, subjects affected (Metastatic liver; 0.5 and 1 g/m^2/d IV): Ototoxicity (0/3) at 0.5
Other toxicity detected, subjects affected (Metastatic liver; 2 g/m^2/d IV): (0/3) at 2 g/m^2/d
Ototoxicity, subjects affected (Metastatic liver; 2 g/m^2/d IV): Ototoxicity (3/3) at 2 g/m^2/d
dose with dose limiting ototoxicity (Metastatic liver; [12]): 1500 mg/m^2/d
average level of insoluble Abeta40 peptide in whole brain lysates (Abeta peptides): No significant change
average level of insoluble Abeta 42 peptide in whole brain lysates (Abeta peptides): No significant change
soluble Abeta 40 levels in whole brain lysates (Abeta peptides): statistically significantly decreased
Ototoxicity (melanoma [4]; [13]): Ototoxicity (10%)
Ototoxicity trend with dose and duration (melanoma [4]; [13]): Increasing with dose
dose with mild ototoxicity (melanoma [4]; oral delivery [Croghan M K]): 2000 mg/m^2/d
Brain-based toxicity: deaths (humans [5]; 14. g/m^2/d IV, n = 1055): 15 deaths
Brain-based toxicity: seizures (humans [5]; 14. g/m^2/d IV, n = 1055): (4%)
Other toxicity detected: abdominal pain (humans [5]; 14. g/m^2/d IV, n = 1055): pain (37.7%),
Other toxicity detected: headache (humans [5]; 14. g/m^2/d IV, n = 1055): (31.2%),
Other toxicity detected: diarrhea (humans [5]; 14.8 g/m^2/d ORAL, n = 25): (58.3%)
Other toxicity detected: headache (humans [5]; 14.8 g/m^2/d ORAL, n = 25): (16.7%),
Predicted Dose limiting effects (humans [6]; estimated human dose 36 mg/m^2 daily): none
Predicted Dose limiting effects (humans [6]; estimated human dose 109 mg/m^2 daily): none
Predicted Dose limiting effects (humans [6]; estimated human dose 328 mg/m^2 daily): none
Other toxicity detected: vomiting/diarrhea (Normal volunteers; 0.5-3 g/m^2/d oral, n = 13): Not study limiting
dose above which ototoxicity is dose dependent, increasing toxicity (Normal volunteers; 0.5-3 g/m^2/d oral, n = 13): (12%); >1 g/m^2/d is
Ototoxicity (Normal volunteers; 0.5 g/m^2/d oral, same as placebo (12%)): (9%) same as placebo
dose with mild reversible ototoxicity (no adverse event grade assigned) (Normal volunteers; [12]): 1000 mg/m^2/d
average number of errors in finding an escape platform after 2 days of trials, radial arm water maze (CVN-AD mice [7]; 0.3 mg/kg (0.9 mg/m^2) oral gavage 3x/wk 14 weeks vs water only): statistically significantly decreased
average number of errors in finding an escape platform after 2 days of trials, radial arm water maze (CVN-AD mice [7]; 30 mg/kg (92.5 mg/m^2) oral gavage 3x/wk 14 weeks vs water only): more so
average number of seconds on the rotorod over 3 days of testing (CVN-AD mice [8]; DFMO 0.3 or 30 mg/kg vs water only): No change
toxic effect on motor skills (CVN-AD mice [8]; at the doses used (0.3, 30 mg/kg)): no toxic effect
